From US5206227A, “Composition and use of phosphonic acid, (2-halo-2-cyanoethenyl)-dialkyl esters as antimicrobials” (priority 1992, dated 1993)

Columns and labels:
[1] = system: Pseudomonas aeruginosa (Pa); assay: Minimum inhibitory concentration (MIC), nutrient agar; format: cell-based, Pseudomonas aeruginosa (ATCC 10145); details: 30° C., 48 hours
Procedure: (§1) The minimum inhibitory concentration (MIC) for compounds of this invention, listed in Table I, is determined for 9 bacteria, using nutrient agar, and 7 yeast and fungi, using malt yeast agar. A one percent solution of a compound is prepared in a mixture of acetone and water. Nutrient agar is prepared at pH 6.8, representing a neutral medium, and at pH 8.2, representing an alkaline medium. The nutrient agars are prepared by adding 23 g of nutrient agar to one-liter of deionized water. In addition, the alkaline medium is prepared by adjusting a 0.04M solution of N-[tris-(hydroxymethyl)methyl]-glycine buffered deionized water with concentrated sodium hydroxide to a pH of […]. Malt yeast agar is prepared by adding 3 g yeast extract and 45 g malt agar per liter of deionized water. The specific agar is dispensed in 30 ml aliquots into 25×200 mm test tubes, capped and autoclaved for 15 minutes at 115° C. The test tubes containing the agar are cooled in a water bath until the temperature of the agar is 48° C. Then, an appropriate amount of the one percent solution of the compound is added (except in the controls where no compound is added) to the respective test tubes so that the final concentrations are 500, 250, 100, 50, 25, 10, 5, 2.5, 1.0 and zero parts per million of the compound in the agar, thus having a known concentration of compound dispersed therein. The contents of the test tubes are then transferred to respective petri plates. After drying for 24 hours, the petri plates containing nutrient agar are inoculated with bacteria and those containing malt yeast agar are inoculated with yeast and fungi.
(§2) The inoculation with bacteria is accomplished by using the following procedure. Twenty-four hour-cultures of each of the bacteria are prepared by incubating the respective bacteria in tubes containing nutrient broth for 24 hours at 30° C. in a shaker. Dilutions of each of the 24 hour-cultures are made so that nine separate suspensions (one for each of the nine test bacteria) are made, each containing 10^8 colony forming units (CFU) per milliliter of suspension of a particular bacteria. Aliquots of 0.3 ml of each of the bacterial suspensions are used to fill the individual wells of Steer's Replicator. For each microbial suspension 0.3 ml was used to fill three wells (i.e., three wells of 0.3 ml each) […] to inoculate both the neutral and alkaline pH nutrient agar petri plates.
(§3) The inoculated petri plates are incubated at 30° C. for 48 hours and then read to determine if the compound which is incorporated into the agar prevented growth of the respective bacteria. […]

Candida albicans = assay: Minimum inhibitory concentration (MIC), malt yeast agar; format: cell-based, Candida albicans (ATCC 10231); details: Ca, 30° C., 48 hours (yeast)
Procedure: (§4) The minimum inhibitory concentration (MIC) for compounds of this invention, listed in Table I, is determined for 9 bacteria, using nutrient agar, and 7 yeast and fungi, using malt yeast agar. A one percent solution of a compound is prepared in a mixture of acetone and water. Nutrient agar is prepared at pH 6.8, representing a neutral medium, and at pH 8.2, representing an alkaline medium. The nutrient agars are prepared by adding 23 g of nutrient agar to one-liter of deionized water. In addition, the alkaline medium is prepared by adjusting a 0.04M solution of N-[tris-(hydroxymethyl)methyl]-glycine buffered deionized water with concentrated sodium hydroxide to a pH of […]. Malt yeast agar is prepared by adding 3 g yeast extract and 45 g malt agar per liter of deionized water. The specific agar is dispensed in 30 ml aliquots into 25×200 mm test tubes, capped and autoclaved for 15 minutes at 115° C. The test tubes containing the agar are cooled in a water bath until the temperature of the agar is 48° C. […]
(§5) The inoculation with the yeast and fungi is accomplished as follows. […] The petri plates are incubated at 30° C. and read after 48 hours for yeast and 72 hours for fungi. […]

Trichoderma viride = assay: as above; format: cell-based, Trichoderma viride (ATCC 8678); details: Tv, 30° C., 72 hours (fungi)
Procedure: as §4, §5

Escherichia coli = assay: Minimum inhibitory concentration (MIC), nutrient agar; format: cell-based, Escherichia coli (ATCC 11229); details: Ec, 30° C., 48 hours
Procedure: as §1, §2, §3

Proteus vulgaris = assay: as above; format: cell-based, Proteus vulgaris (ATCC 881); details: Pv, 30° C., 48 hours
Procedure: as §1, §2, §3

Staphylococcus aureus = assay: as above; format: cell-based, Staphylococcus aureus (ATCC 6538); details: Sa, 30° C., 48 hours
Procedure: as §1, §2, §3

Fusarium oxysporum = assay: Minimum inhibitory concentration (MIC), malt yeast agar; format: cell-based, Fusarium oxysporum (ATCC 48112); details: Fo, 30° C., 72 hours (fungi)
Procedure: as §4, §5

Saccharomyces cerevisiae = assay: as above; format: cell-based, Saccharomyces cerevisiae (ATCC 4105); details: Sc, 30° C., 48 hours (yeast)
Procedure: as §4, §5

Enterobacter aerogenes = assay: Minimum inhibitory concentration (MIC), nutrient agar; format: cell-based, Enterobacter aerogenes (ATCC 13048); details: Ea, 30° C., 48 hours
Procedure: as §1, §2, §3

Salmonella choleraesuis = assay: as above; format: cell-based, Salmonella choleraesuis (ATCC 10708); details: Sc, 30° C., 48 hours
Procedure: as §1, §2, §3

Klebsiella pneumoniae = assay: as above; format: cell-based, Klebsiella pneumoniae (ATCC 8308); details: Kp, 30° C., 48 hours
Procedure: as §1, §2, §3

[2] = system: Pseudomonas aeruginosa (PRD-10); assay: as above; format: cell-based, Pseudomonas aeruginosa (ATCC 15442); details: 30° C., 48 hours
Procedure: as §1, §2, §3

Penicillium chrysogenum = assay: Minimum inhibitory concentration (MIC), malt yeast agar; format: cell-based, Penicillium chrysogenum (ATCC 9480); details: Pc, 30° C., 72 hours (fungi)
Procedure: as §4, §5

Bacillus subtilis = assay: Minimum inhibitory concentration (MIC), nutrient agar; format: cell-based, Bacillus subtilis (ATCC 8473); details: Bs, 30° C., 48 hours
Procedure: as §1, §2, §3

Aspergillus niger = assay: Minimum inhibitory concentration (MIC), malt yeast agar; format: cell-based, Aspergillus niger (ATCC 16404); details: An, 30° C., 72 hours (fungi)
Procedure: as §4, §5

| Structure (SMILES) | Minimum Inhibitory Concentration (MIC) ([1]; pH 6.8, nutrient agar) [ppm] | Minimum Inhibitory Concentration (MIC) ([1]; pH 8.2, nutrient agar) [ppm] | Minimum Inhibitory Concentration (MIC) (Candida albicans) [ppm] | Minimum Inhibitory Concentration (MIC) (Trichoderma viride) [ppm] | Minimum Inhibitory Concentration (MIC) (Escherichia coli; pH 6.8, nutrient agar) [ppm] | Minimum Inhibitory Concentration (MIC) (Escherichia coli; pH 8.2, nutrient agar) [ppm] | Minimum Inhibitory Concentration (MIC) (Proteus vulgaris; pH 6.8, nutrient agar) [ppm] | Minimum Inhibitory Concentration (MIC) (Proteus vulgaris; pH 8.2, nutrient agar) [ppm] | Minimum Inhibitory Concentration (MIC) (Staphylococcus aureus; pH 6.8, nutrient agar) [ppm] | Minimum Inhibitory Concentration (MIC) (Staphylococcus aureus; pH 8.2, nutrient agar) [ppm] | Minimum Inhibitory Concentration (MIC) (Fusarium oxysporum) [ppm] | Minimum Inhibitory Concentration (MIC) (Saccharomyces cerevisiae) [ppm] | Minimum Inhibitory Concentration (MIC) (Enterobacter aerogenes; pH 6.8, nutrient agar) [ppm] | Minimum Inhibitory Concentration (MIC) (Enterobacter aerogenes; pH 8.2, nutrient agar) [ppm] | Minimum Inhibitory Concentration (MIC) (Salmonella choleraesuis; pH 6.8, nutrient agar) [ppm] | Minimum Inhibitory Concentration (MIC) (Salmonella choleraesuis; pH 8.2, nutrient agar) [ppm] | Minimum Inhibitory Concentration (MIC) (Klebsiella pneumoniae; pH 6.8, nutrient agar) [ppm] | Minimum Inhibitory Concentration (MIC) (Klebsiella pneumoniae; pH 8.2, nutrient agar) [ppm] | Minimum Inhibitory Concentration (MIC) ([2]; pH 6.8, nutrient agar) [ppm] | Minimum Inhibitory Concentration (MIC) ([2]; pH 8.2, nutrient agar) [ppm] | further results |
| --- | --- | --- | --- | --- | --- | --- | --- | --- | --- | --- | --- | --- | --- | --- | --- | --- | --- | --- | --- | --- | --- |
| COP(=O)(C=C(Cl)C#N)OC [Compound A, Phosphonic acid, (2-chloro-2-cyanoethenyl)-dimethyl ester] | 500 | > 500 | 100 | 100 | 250 | > 500 | 250 | > 500 | 50 | > 10 | 50 | 100 | 500 | > 500 | 250 | > 500 | 250 | 500 | 500 | > 500 | Minimum Inhibitory Concentration (MIC) (Penicillium chrysogenum): 50 ppm; Minimum Inhibitory Concentration (MIC) (Bacillus subtilis; pH 6.8, nutrient agar): 25 ppm; Minimum Inhibitory Concentration (MIC) (Bacillus subtilis; pH 8.2, nutrient agar): 500 ppm; Minimum Inhibitory Concentration (MIC) (Aspergillus niger): 250 ppm |
| CCOP(=O)(C=C(Cl)C#N)OCC [Compound B, Phosphonic acid, (2-chloro-2-cyanoethenyl)-diethyl ester] | 250 | > 500 | 100 | 100 | 50 | > 500 | 25 | > 500 | 25 | > 500 | 50 | 250 | 100 | > 500 | 25 | > 500 | 50 | > 500 | 250 | > 500 | Minimum Inhibitory Concentration (MIC) (Penicillium chrysogenum): 100 ppm; Minimum Inhibitory Concentration (MIC) (Bacillus subtilis; pH 6.8, nutrient agar): 25 ppm; Minimum Inhibitory Concentration (MIC) (Bacillus subtilis; pH 8.2, nutrient agar): > 500 ppm; Minimum Inhibitory Concentration (MIC) (Aspergillus niger): 250 ppm |
